Earlier results on one substance are cited in patent US20090253620A1, “METHODS AND COMPOSITIONS FOR TREATING GASTROINTESTINAL RADIOSENSITITIVITY IN A SUBJECT” (WASHINGTON UNIVERSITY IN ST. LOUIS, priority 2005, published 2009).

In series [1] the test system is intestinal mesenchymal cells. The note with it: CONV-R wt mice.
The subject of the next series is mice. The following applies: CONV-R wt mice.

As to Fgf-2: fibroblast growth factor-2, the “TBI-induced intestinal mesenchymal apoptosis” value in series [1] is recorded as “attenuates”. In addition, the TBI-associated mortality entry in the series with mice is given as “decreases”.
